Test results published in patent US7381688B2, “Methylthiophene carboxanilides” (Bayer CropScience AG, priority 2002, dated 2008).

system: not listed separately; assay: logP determination by HPLC (reverse-phase C 18), EEC Directive 79/831 Annex V.A8; assay type: physicochemical; conditions: reverse-phase C18 HPLC column; Table 1; acidic range at pH 2.3, HPLC, 43° C.; read-out: logP
Method: The logP value given in the Preparation Examples and tables above are determined in accordance with EEC Directives 79/831 Annex V.A8 by HPLC (High Performance Liquid Chromatography) using a reverse-phase column (C 18). Temperature: 43° C.
The determination is carried out in the acidic range at pH 2.3 using the mobile phases 0.1% aqueous phosphoric acid and acetonitrile; linear gradient from 10% acetonitrile to 90% acetonitrile.
Calibration is carried out using unbranched alkan-2-ones (having 3 to 16 carbon atoms) with known logP values (determination of the logP values by the retention times using linear interpolation between two successive alkanones).

Row | SMILES | chromatographic logP
1 | Cc1ccsc1C(=O)Nc1ccccc1-c1ccc(OC(F)(F)F)cc1 [Example 6] | 4.33
2 | Cc1ccsc1C(=O)Nc1ccccc1-c1ccc(F)cc1 [Example 8] | 3.65
3 | Cc1ccsc1C(=O)Nc1ccccc1-c1ccc(OC(F)(F)F)c(F)c1 [Example 11] | 4.13
4 | Cc1ccsc1C(=O)Nc1ccccc1-c1ccc(OC(F)(F)F)c(C(F)(F)F)c1 [Example 12] | 4.37
5 | Cc1ccsc1C(=O)Nc1ccccc1-c1cc(Cl)cc(Cl)c1 [Example 15] | 4.32
6 | Cc1ccsc1C(=O)Nc1ccccc1-c1ccc(Cl)cc1Cl [Example 19] | 5.76

More lines, now with the values ahead:

Row | chromatographic logP | SMILES
7 | 4.12 | Cc1ccsc1C(=O)Nc1ccccc1-c1ccc(Br)cc1 [Example 3]
8 | 3.97 | Cc1ccsc1C(=O)Nc1ccccc1-c1cccc(Cl)c1 [Example 5]
9 | 3.55 | Cc1ccsc1C(=O)Nc1ccccc1-c1ccc(F)c(F)c1 [Example 9]
10 | 3.85 | Cc1ccsc1C(=O)Nc1ccccc1-c1ccc(Cl)c(F)c1 [Example 10]

same assay, conditions: reverse-phase C18 HPLC column; pH 2.3, HPLC, 43° C.; read-out: logP (pH 2.3)

Row | chromatographic logP | SMILES
11 | 3.85 | Cc1ccsc1C(=O)Nc1ccccc1-c1ccc(F)c(Cl)c1 [Example 1, N-(3′-chloro-4′-fluoro-1,1′-biphenyl-2-yl)-3-methyl-2-thiophenecarboxamide]
12 | 3.3 | Cc1ccsc1C(=O)Nc1ccccc1Br [III-1, N-(2-bromophenyl)-3-methyl-2-thiophenecarboxamide]

system: Pyrenophora teres; assay: Pyrenophora teres test (barley)/protective; assay type: in vivo; conditions: protective, 500 g/ha, evaluation 7 days after inoculation
Method: Pyrenophora teres Test (Barley)/Protective
• Solvent: 25 parts by weight N,N-dimethylacetamide • Emulsifier: 0.6 part by weight alkylaryl polyglycol ether
(§1) To produce a suitable preparation of active compound, 1 part by weight of active compound is mixed with the stated amounts of solvent and emulsifier, and the concentrate is diluted with water to the desired concentration.
To test for protective activity, young plants are sprayed with the preparation of active compound at the stated application rate. After the spray coating has dried on, the plants are sprayed with a conidia suspension of Pyrenophora teres. The plants remain in an incubation cabin at 20° C. and 100% relative atmospheric humidity for 48 hours.
The plants are then placed in a greenhouse at a temperature of about 20° C. and relative atmospheric humidity of about 80%.
(§2) Evaluation is carried out 7 days after the inoculation. 0% means an efficacy which corresponds to that of the control, whereas an efficacy of 100% means that no infection is observed.

Row | SMILES | Efficacy in % [%]
13 | Cc1ccsc1C(=O)Nc1ccccc1-c1ccc(F)cc1 [Example 8] | 80
14 | Cc1ccsc1C(=O)Nc1ccccc1-c1ccc(F)c(F)c1 [Example 9] | 100
15 | Cc1ccsc1C(=O)Nc1ccccc1-c1ccc(Cl)cc1F [Example 13] | 94

system: Podosphaera leucotricha; assay: Podosphaera test (apple)/protective; assay type: in vivo; conditions: 240 h, protective, evaluation 10 days after inoculation, read-out: Efficacy in %
Method: Podosphaera Test (Apple)/Protective
(§3) • Solvents: 24.5 parts by weight of acetone • 24.5 parts by weight dimethylacetamide • Emulsifier: 1.0 part by weight alkylaryl polyglycol ether
(§4) To produce a suitable preparation of active compound, 1 part by weight of active compound is mixed with the stated amounts of solvents and emulsifier, and the concentrate is diluted with water to the desired concentration.
(§5) To test for protective activity, young plants are sprayed with the preparation of active compound at the stated application rate. After the spray coating has dried on, the plants are inoculated with an aqueous spore suspension of the apple mildew pathogen Podosphaera leucotricha. The plants are then placed in a greenhouse at about 23° C. and a relative atmospheric humidity of about 70%.
(§6) Evaluation is carried out 10 days after the inoculation. 0% means an efficacy which corresponds to that of the control, whereas an efficacy of 100% means that no infection is observed.

Row | SMILES | pest or weed control at 100 g/ha [%]
16 | Cc1ccsc1C(=O)Nc1ccccc1-c1ccc(F)c(Cl)c1 [Example 1, N-(3′-chloro-4′-fluoro-1,1′-biphenyl-2-yl)-3-methyl-2-thiophenecarboxamide] | 100
17 | Cc1ccsc1C(=O)Nc1ccccc1-c1cccc(Cl)c1 [Example 5] | 100
18 | Cc1ccsc1C(=O)Nc1ccccc1-c1ccc(OC(F)(F)F)cc1 [Example 6] | 100
19 | Cc1ccsc1C(=O)Nc1ccccc1-c1ccc(F)c(F)c1 [Example 9] | 100
20 | Cc1ccsc1C(=O)Nc1ccccc1-c1ccc(Cl)c(F)c1 [Example 10] | 100
21 | Cc1ccsc1C(=O)Nc1ccccc1-c1ccc(OC(F)(F)F)c(F)c1 [Example 11] | 100
22 | Cc1ccsc1C(=O)Nc1ccccc1-c1ccc(OC(F)(F)F)c(C(F)(F)F)c1 [Example 12] | 100
23 | Cc1ccsc1C(=O)Nc1ccccc1-c1ccc(Cl)cc1F [Example 13] | 100
24 | Cc1ccsc1C(=O)Nc1ccccc1-c1cc(Cl)cc(Cl)c1 [Example 15] | 100
25 | Cc1ccsc1C(=O)Nc1ccccc1-c1ccc(Cl)cc1Cl [Example 19] | 100

system: Venturia inaequalis; assay: Venturia test (apple)/protective; assay type: in vivo; conditions: 240 h, protective, evaluation 10 days after inoculation, read-out: Efficacy in %
Method: Venturia Test (Apple)/Protective
• Solvents: 24.5 parts by weight acetone • 24.5 parts by weight dimethylacetamide • Emulsifier: 1.0 part by weight alkylaryl polyglycol ether
To produce a suitable preparation of the active compound, 1 part by weight of active compound is mixed with the stated amounts of solvents and emulsifier, and the concentrate is diluted with water to the desired concentration.
To test for protective activity, young plants are sprayed with the preparation of active compound at the stated application rate. After the spray coating has dried on, the plants are inoculated with an aqueous Conidia suspension of the apple scab pathogen Venturia inaequalis and then remain in an incubation cabin at about 20° C. and 100% relative atmospheric humidity for 1 day.
The plants are then placed in a greenhouse at about 21° C. and a relative atmospheric humidity of about 90%.
as §6

Row | SMILES | pest or weed control at 100 g/ha [%]
26 | Cc1ccsc1C(=O)Nc1ccccc1-c1ccc(F)c(Cl)c1 [Example 1, N-(3′-chloro-4′-fluoro-1,1′-biphenyl-2-yl)-3-methyl-2-thiophenecarboxamide] | 100
27 | Cc1ccsc1C(=O)Nc1ccccc1-c1cccc(Cl)c1 [Example 5] | 100
28 | Cc1ccsc1C(=O)Nc1ccccc1-c1ccc(F)c(F)c1 [Example 9] | 100
29 | Cc1ccsc1C(=O)Nc1ccccc1-c1ccc(Cl)c(F)c1 [Example 10] | 100
30 | Cc1ccsc1C(=O)Nc1ccccc1-c1ccc(OC(F)(F)F)c(F)c1 [Example 11] | 100
31 | Cc1ccsc1C(=O)Nc1ccccc1-c1ccc(Cl)cc1F [Example 13] | 100
32 | Cc1ccsc1C(=O)Nc1ccccc1-c1cc(Cl)cc(Cl)c1 [Example 15] | 97
33 | Cc1ccsc1C(=O)Nc1ccccc1-c1ccc(Cl)cc1Cl [Example 19] | 99

system: Alternaria solani; assay: Alternaria test (tomato)/protective; assay type: in vivo; conditions: protective, 750 g/ha, evaluation 7 days after inoculation
Method: Alternaria Test (Tomato)/Protective
• Solvent: 49 parts by weight N,N-dimethylformamide • Emulsifier: 1 part by weight of alkylaryl polyglycol ether
as §1
To test for protective activity, young tomato plants are sprayed with the preparation of active compound at the stated application rate. 1 day after the treatment, the plants are inoculated with a spore suspension of Alternaria solani and then remain at 100% relative humidity and 20° C. for 24 h. The plants then remain at 96% relative atmospheric humidity and a temperature of 20° C.
as §2

Row | SMILES | Efficacy in % [%]
34 | Cc1ccsc1C(=O)Nc1ccccc1-c1ccc(Br)cc1 [Example 3] | 100
35 | Cc1ccsc1C(=O)Nc1ccccc1-c1cccc(Cl)c1 [Example 5] | 100
36 | Cc1ccsc1C(=O)Nc1ccccc1-c1ccc(OC(F)(F)F)cc1 [Example 6] | 100
37 | Cc1ccsc1C(=O)Nc1ccccc1-c1ccc(F)cc1 [Example 8] | 100
38 | Cc1ccsc1C(=O)Nc1ccccc1-c1ccc(F)c(F)c1 [Example 9] | 100
39 | Cc1ccsc1C(=O)Nc1ccccc1-c1ccc(Cl)c(F)c1 [Example 10] | 100

system: Sphaerotheca fuliginea; assay: Sphaerotheca test (cucumber)/protective; assay type: in vivo; conditions: Podosphaera fuliginea, 168 h, protective, evaluation 7 days after inoculation, read-out: Efficacy in %
Method: Sphaerotheca Test (Cucumber)/Protective
as §3, §4
as §5, with “Sphaerotheca fuliginea.” for “the apple mildew pathogen Podosphaera leucotricha.”
as §2

Row | SMILES | pest or weed control at 100 g/ha [%]
40 | Cc1ccsc1C(=O)Nc1ccccc1-c1ccc(F)c(Cl)c1 [Example 1, N-(3′-chloro-4′-fluoro-1,1′-biphenyl-2-yl)-3-methyl-2-thiophenecarboxamide] | 100
41 | Cc1ccsc1C(=O)Nc1ccccc1-c1cccc(Cl)c1 [Example 5] | 93
42 | Cc1ccsc1C(=O)Nc1ccccc1-c1ccc(OC(F)(F)F)cc1 [Example 6] | 100
43 | Cc1ccsc1C(=O)Nc1ccccc1-c1ccc(F)c(F)c1 [Example 9] | 100
44 | Cc1ccsc1C(=O)Nc1ccccc1-c1ccc(Cl)c(F)c1 [Example 10] | 100
45 | Cc1ccsc1C(=O)Nc1ccccc1-c1ccc(OC(F)(F)F)c(F)c1 [Example 11] | 100
46 | Cc1ccsc1C(=O)Nc1ccccc1-c1ccc(OC(F)(F)F)c(C(F)(F)F)c1 [Example 12] | 100
47 | Cc1ccsc1C(=O)Nc1ccccc1-c1ccc(Cl)cc1F [Example 13] | 100
48 | Cc1ccsc1C(=O)Nc1ccccc1-c1cc(Cl)cc(Cl)c1 [Example 15] | 100
49 | Cc1ccsc1C(=O)Nc1ccccc1-c1ccc(Cl)cc1Cl [Example 19] | 96
